Measurements: US20130295666A1, “CRYSTALS OF GLUCOKINASE REGULATORY PROTEIN (GKRP)” (Boehringer Ingelheim International GmbH, priority 2011, published 2013)
Numbering of substitutions follows the chain as printed. In names and notes the source's numbering stands.

How the values were obtained:
[1] = molecular target: T1, rat GKRP (Rattus norvegicus, UniProt Q07071); details: Van Schaftingen 1989, Veiga-da-Cunha and Van Schaftingen 2002; cited from earlier work
T1 sequence (Q07071 1-627): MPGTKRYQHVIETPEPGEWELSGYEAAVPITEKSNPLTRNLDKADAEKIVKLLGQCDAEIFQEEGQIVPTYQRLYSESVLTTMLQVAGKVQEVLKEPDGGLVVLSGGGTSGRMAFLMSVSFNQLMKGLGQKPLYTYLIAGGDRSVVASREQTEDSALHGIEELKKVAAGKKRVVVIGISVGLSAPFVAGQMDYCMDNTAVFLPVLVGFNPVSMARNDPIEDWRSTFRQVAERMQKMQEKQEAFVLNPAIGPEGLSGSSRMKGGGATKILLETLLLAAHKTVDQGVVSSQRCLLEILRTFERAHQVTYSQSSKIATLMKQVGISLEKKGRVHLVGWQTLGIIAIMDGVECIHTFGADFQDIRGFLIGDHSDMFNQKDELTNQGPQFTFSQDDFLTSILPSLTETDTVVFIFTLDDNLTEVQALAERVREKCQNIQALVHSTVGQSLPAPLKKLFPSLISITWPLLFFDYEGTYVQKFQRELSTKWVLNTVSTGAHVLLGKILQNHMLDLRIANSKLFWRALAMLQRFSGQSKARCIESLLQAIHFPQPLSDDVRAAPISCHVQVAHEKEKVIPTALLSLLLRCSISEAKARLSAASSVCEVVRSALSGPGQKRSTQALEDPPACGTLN

[2] = molecular target: T2, hGKRP_C-His (Homo sapiens, UniProt Q14397); assay: amide hydrogen (H/D) exchange, ligand-bound vs apo-GKRP; format: binding; details: 30 min H/D exchange; six regions; compared to apo-GKRP
T2 construct: made in house; host or cells: High FIVE insect cells (baculovirus, BAC-to-BAC)
T2 sequence (Q14397 with tags, fused parts or gaps): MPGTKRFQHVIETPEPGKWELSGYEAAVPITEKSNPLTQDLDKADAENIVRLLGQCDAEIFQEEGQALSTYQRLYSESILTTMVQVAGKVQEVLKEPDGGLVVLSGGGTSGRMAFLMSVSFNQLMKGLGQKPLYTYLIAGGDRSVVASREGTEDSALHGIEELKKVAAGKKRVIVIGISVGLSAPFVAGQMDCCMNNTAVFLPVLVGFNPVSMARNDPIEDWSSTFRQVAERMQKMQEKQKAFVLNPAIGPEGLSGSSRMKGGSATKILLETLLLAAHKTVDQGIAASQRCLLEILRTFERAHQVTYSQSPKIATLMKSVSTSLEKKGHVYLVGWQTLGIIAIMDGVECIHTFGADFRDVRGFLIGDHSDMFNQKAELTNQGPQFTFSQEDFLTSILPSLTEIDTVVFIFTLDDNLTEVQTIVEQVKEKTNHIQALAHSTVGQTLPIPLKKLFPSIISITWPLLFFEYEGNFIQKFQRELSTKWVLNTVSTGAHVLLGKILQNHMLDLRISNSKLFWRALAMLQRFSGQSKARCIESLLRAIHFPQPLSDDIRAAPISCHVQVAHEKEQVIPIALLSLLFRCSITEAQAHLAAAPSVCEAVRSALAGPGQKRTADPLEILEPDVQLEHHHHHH
Procedure: This experiment was performed to map the potential ligand binding sites via the amide hydrogen exchange behaviour of apo-GKRP in comparison to ligand-bound GKRP.
Amide hydrogen (H/D) exchange was initiated by a 20-fold dilution of 30 pmol hGKRP_C-His with or without ligand into D2O containing 100 mM HEPES, pD 7.4, 200 mM KCl, 100 mM MgCl2, and 2 mM DTT and incubated at room temperature.
After various time points (10 sec, 1 min and 30 min), the exchange reaction was quenched by decreasing the temperature to 0° C. and the pH to 2.5 with quench buffer (500 mM KH2PO4/H3PO4, pH 2.5, 2 M Urea, and 2 mM TCEP). Quenched samples were directly injected into an HPLC setup and analyzed on an electrospray ionization-quadrupole time of flight-mass spectrometer (QSTAR XL, Applied Biosystems) as described by Rist et al. (2003): Mapping temperature-induced conformational changes in the Escherichia coli heat shock transcription factor sigma 32 by amide hydrogen exchange, J. Biol. Chem., 278, 51415-51421.
The HPLC setup contained a column (2×20 mm) packed with Poroszyme immobilized pepsin (Applied Biosystems, Darmstadt, Germany). […] The deuterium content of the peptides was calculated by using the average mass difference between the isotopic envelopes of the deuterated and the undeuterated peptides. […]

[3] = molecular target: T2, hGKRP_C-His; assay: F1P competition with F6P in the coupled GK assay, using hGKRP_C-His; format: biochemical; details: in the presence of 6 μM F6P, read-out: EC50 of F1P to increase apparent GK activity (inactive GK-GKRP-F6P complex towards free GK)
Excerpt: (§1) GKRP preparations according to examples 1 and 2 have been examined with respect to their enzymatic activity. The applied enzymatic assay measures the effect of GKRP on glucokinase activity in the form of a glucose-6-phosphate dehydrogenase coupled assay at room temperature which is a modification of the method described by Van Schaftingen and Brocklehurst et al. (Van Schaftingen, E. (1989): A protein from rat liver confers to glucokinase the property of being antagonistically regulated by fructose 6-phosphate and fructose 1-phosphate; Eur. J. Biochem., 179, 179-184; Brocklehurst, K. J., Davies, R. A. and Agius, L. (2004): Differences in regulatory properties between human and rat glucokinase regulatory protein; Biochem. J., 378, 693-697).
(§2) The reaction mixture contained 150 mM KCl, 100 mM Hepes, 1 mM ATP, 1 mM MgCl2, 2 mM NADP^+, 2 mM dithiothreitol, pH 7.4, 5 units/ml glucose-6-phosphate dehydrogenase, 0.5 mg/ml BSA, 10 mM glucose, 6 μM fructose 6-P, 15 nM human liver glucokinase and 100 nM of the respective GKRP. The enzymatic reaction was started by the addition of ATP and glucose. The increase in optical density was measured at a wavelength 340 nm over 10 minutes. From these kinetic data, the slope was calculated and graphically depicted.
(§3) This effect was investigated using both hGKRP_C-His as well as hGKRP_C-His_K326T/K327T. […]

[4] = molecular target: T3, hGKRP_C-His_K326T/K327T (Homo sapiens, UniProt Q14397, K326T/K327T); assay: F1P competition with F6P in the coupled GK assay, using hGKRP_C-His_K326T/K327T; format: biochemical; details: in the presence of 6 μM F6P, read-out: EC50 of F1P to increase apparent GK activity (inactive GK-GKRP-F6P complex towards free GK)
T3 construct: made in house; host or cells: High FIVE insect cells (baculovirus, BAC-to-BAC)
T3 sequence (Q14397 with tags, fused parts or gaps K326T/K327T): T2 sequence (Q14397 with tags, fused parts or gaps) with K326T, K327T
Excerpt: as §1, §2, §3

[5] = molecular target: T4, human liver glucokinase (human, UniProt P35557-2 1-466, limits assumed); assay: cell-based or functional assay
T4 sequence (looked up): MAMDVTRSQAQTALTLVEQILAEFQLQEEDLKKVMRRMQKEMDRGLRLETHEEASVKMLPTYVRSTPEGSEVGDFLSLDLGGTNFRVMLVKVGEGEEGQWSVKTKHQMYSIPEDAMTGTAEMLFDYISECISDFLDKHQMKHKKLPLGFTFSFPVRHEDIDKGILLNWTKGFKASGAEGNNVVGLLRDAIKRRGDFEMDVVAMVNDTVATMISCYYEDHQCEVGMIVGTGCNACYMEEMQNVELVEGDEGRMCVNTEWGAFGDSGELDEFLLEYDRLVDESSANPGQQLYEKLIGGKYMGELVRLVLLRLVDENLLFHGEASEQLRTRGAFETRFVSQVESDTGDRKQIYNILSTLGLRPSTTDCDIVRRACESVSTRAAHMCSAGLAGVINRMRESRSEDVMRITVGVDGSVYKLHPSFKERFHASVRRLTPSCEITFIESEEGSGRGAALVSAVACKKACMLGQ

[6] = tested on: human liver glucokinase; assay: glucose-6-phosphate dehydrogenase coupled assay measuring the effect of GKRP on glucokinase activity; format: biochemical; details: GKRP dosed in excess over GK (15 nM), alone
Excerpt: as §1, §2

Molecule: O=C(CO)[C@@H](O)[C@H](O)[C@H](O)COP(=O)(O)O [F6P, fructose-6-phosphate]
- Kd [1]: 20000 nM
- protection of GKRP regions against H/D exchange by the ligand [2]: protection against H/D exchange

Molecule: O=C(COP(=O)(O)O)[C@@H](O)[C@H](O)[C@H](O)CO [F1P, fructose-1-phosphate]
- EC50 [3]: 6280 ± 1070 nM
- EC50 [4]: 5080 ± 1380 nM
- Kd [1]: 1000 nM
- protection of GKRP regions against H/D exchange by the ligand [2]: protection against H/D exchange

B1: hGKRP_C-His (human glucokinase regulatory protein with C-terminal LEHHHHHH octapeptide) (other)
chain: T2 sequence (Q14397 with tags, fused parts or gaps)
- IC50 of inhibition of GK activity in the presence of 6 µM fructose 6-phosphate [5]: 74 nM
- IC50 of inhibition of apparent GK enzymatic activity (glucose-6-phosphate dehydrogenase coupled assay), GKRP alone [5]: 124 nM
- inhibition of the apparent GK enzymatic activity [6]: > 90%

B2: hGKRP_C-His_K326T/K327T (other)
chain: T2 sequence (Q14397 with tags, fused parts or gaps) with K326T, K327T
- IC50 of decrease of apparent GK activity in the presence of 6 µM F6P [5]: 71 nM
- IC50 of decrease of apparent GK activity, GKRP alone [5]: 116 nM
